For data set [1], the system named is Staphylococcus aureus. Description: In vivo antimicrobial activity against Staphylococcus aureus Newman infected in Caenorhabditis elegans AU37 nematodes assessed as viability of nematodes incubated for 5 days by susceptibility test. Conditions: 120 h, time 5 day. In kind it is functional.
Data set [2] concerns Staphylococcus aureus. Description: Antimicrobial activity against antibiotic-resistant Staphylococcus aureus ATCC 700699 assessed as inhibition of visible growth measured after 20 to 24 hrs incubation by CLSI method. In kind it is functional. Conditions: time 20-24 hrs.
Data set [3] concerns Staphylococcus aureus. Description: In vivo antimicrobial activity against Staphylococcus aureus USA300 infected in Caenorhabditis elegans AU37 nematodes assessed as viability of nematodes incubated for 5 days by susceptibility test. In kind it is functional. The conditions noted are these: USA300, 120 h, time 5 day.
The test system of data set [4] is Cell membrane. Description: Induction of membrane permeability in Staphylococcus aureus ATCC 700699 assessed as increase in fluorescence intensity at 4 times of MIC incubated for 15 mins measured for 1 hr by propidium iodide/real time fluorescence based flow cytometry Rvb = 3.5). Conditions: time 75.0 min. For orientation: Flow cytometry measures light scatter and fluorescence of single cells or particles in a stream.

Data set [5] relates to Enterococcus faecalis. Description: Antimicrobial activity against antibiotic-susceptible Enterococcus faecalis ATCC 29212 assessed as eradication of biofilm measured after 24 hrs incubation by Calgary method. In kind it is functional.
The test system of data set [6] is Staphylococcus aureus. Description: Antimicrobial activity against Staphylococcus aureus ATCC 25923 assessed as eradication of biofilm measured after 24 hrs incubation by Calgary method. In kind it is functional.
For data set [7], the system named is Enterococcus faecalis. In words: Antimicrobial activity against antibiotic-resistant Enterococcus faecalis ATCC 51299 assessed as inhibition of visible growth measured after 20 to 24 hrs incubation by CLSI method. In kind it is functional. Conditions: time 20-24 hrs.
Data set [8] deals with Staphylococcus aureus. Description: In vivo antimicrobial activity against Staphylococcus aureus UAMS-1 infected in Caenorhabditis elegans AU37 nematodes assessed as viability of nematodes incubated for 5 days by susceptibility test. In kind it is functional. The conditions noted are these: UAMS-1, 120 h, time 5 day.
Data set [9] deals with Enterococcus faecium. Description: Antimicrobial activity against antibiotic-resistant Enterococcus faecium ATCC 700221 assessed as inhibition of visible growth measured after 20 to 24 hrs incubation by CLSI method. In kind it is functional. The conditions noted are these: time 20-24 hrs.
Data set [10] concerns Enterococcus faecalis. Description: Antimicrobial activity against antibiotic-susceptible Enterococcus faecalis ATCC 29212 assessed as inhibition of visible growth measured after 20 to 24 hrs incubation by CLSI method. In kind it is functional. Conditions: time 20-24 hrs.
Data set [11] deals with Staphylococcus aureus. Description: Antimicrobial activity against Staphylococcus aureus UAB159 assessed as inhibition of growth measured after 20 to 24 hrs incubation by CLSI method. In kind it is functional. The conditions noted are these: time 20-24 hrs.
For data set [12], the system named is Staphylococcus aureus. In words: Antimicrobial activity against clinical isolate Staphylococcus aureus Smu21 assessed as inhibition of growth measured after 20 to 24 hrs incubation by CLSI method. In kind it is functional. Conditions: time 20-24 hrs.
Data set [13] deals with Enterococcus faecalis. Description: Antimicrobial activity against antibiotic-susceptible Enterococcus faecalis ATCC 29212 assessed as inhibition of biofilm formation by measuring prevention of turbidity after 24 hrs incubation by Real-time monitoring method. In kind it is functional.
Data set [14] concerns Staphylococcus aureus. In words: Antimicrobial activity against clinical isolate Staphylococcus aureus Smu109 assessed as inhibition of growth measured after 20 to 24 hrs incubation by CLSI method. In kind it is functional. Conditions: time 20-24 hrs.
The nature of data set [15]: Toxicity in Caenorhabditis elegans AU37 assessed as survival at 20 ug/ml measured for 4 days. The conditions noted are these: at 20 µg/mL, time 4 day.
In data set [16] the test system is Erythrocyte. In words: Hemolytic activity in sheep red blood cells assessed as hemolysis at 64 ug/ml incubated for 30 mins relative to control. In kind it is toxicity, cell-based, Ovis aries. The conditions noted are these: 0.5 h, at 64 µg/mL.
The subject of data set [17] is Staphylococcus aureus. In words: Antimicrobial activity against Staphylococcus aureus ATCC 25923 assessed as inhibition of visible growth measured after 20 to 24 hrs incubation by CLSI method. In kind it is functional. Conditions: time 20-24 hrs.
Data set [18] has as its system HEK293. In words: Cytotoxicity against human HEK293 cells assessed as cell viability measured after 24 hrs by resazurin assay. In kind it is toxicity, cell-based.
The subject of data set [19] is Enterococcus faecalis. Description: Antimicrobial activity against Enterococcus faecalis ATCC 29212 assessed as inhibition of biofilm formation by measuring prevention of turbidity after 24 hrs incubation by Real-time monitoring method. In kind it is functional.
Data set [20] relates to Cell membrane. In words: Induction of membrane permeability in Staphylococcus aureus ATCC 700699 assessed as increase in fluorescence at 8 times of MIC incubated for 15 mins measured for 1 hr by propidium iodide/real time fluorescence based flow cytometry. In kind it is subcellular.
The test system of data set [21] is Cell membrane. Description: Induction of membrane permeability in Staphylococcus aureus ATCC 700699 assessed as increase in fluorescence intensity at 1 times of MIC incubated for 15 mins measured for 1 hr by propidium iodide/real time fluorescence based flow cytometry Rvb = 3.5). Conditions: time 75.0 min.
Data set [22] concerns Cell membrane. In words: Induction of membrane permeability in Staphylococcus aureus ATCC 700699 assessed as increase in fluorescence at 0.5 to 2 times of MIC incubated for 15 mins measured for 1 hr by propidium iodide/real time fluorescence based flow cytometry. In kind it is subcellular. The conditions noted are these: time 75.0 min.
Data set [23] deals with Staphylococcus aureus. Description: Antimicrobial activity against antibiotic-susceptible Staphylococcus aureus ATCC 25923 assessed as inhibition of biofilm formation by measuring prevention of turbidity after 24 hrs incubation by Real-time monitoring method. In kind it is functional.
Data set [24] relates to Cell membrane. In words: Induction of membrane permeability in Staphylococcus aureus ATCC 700699 assessed as increase in fluorescence intensity at 2 times of MIC incubated for 15 mins measured for 1 hr by propidium iodide/real time fluorescence based flow cytometry Rvb = 3.5). In kind it is subcellular. The conditions noted are these: time 75.0 min.
In data set [25] the test system is Staphylococcus aureus. Description: Antimicrobial activity against methicilline-resistant Staphylococcus aureus ATCC 700699 persisters assessed as reduction in initial persister concentration at 16 times of MIC concentration measured for 6 hrs by Persisters time course assay. In kind it is functional, organism-based.
Data set [26] has as its system Staphylococcus aureus. In words: Antimicrobial activity against methicilline-resistant Staphylococcus aureus ATCC 700699 persisters assessed as reduction in initial persister concentration at 8 times of MIC concentration measured for 8 hrs by Persisters time course assay. In kind it is functional.
Data set [27] deals with Staphylococcus aureus. Description: Antimicrobial activity against antibiotic-resistant Staphylococcus aureus ATCC BAA-2312 assessed as inhibition of visible growth measured after 20 to 24 hrs incubation by CLSI method. In kind it is functional. Conditions: time 20-24 hrs.
Data set [28] concerns Staphylococcus aureus. In words: Antimicrobial activity against clinical isolate Staphylococcus aureus Smu57 assessed as inhibition of growth measured after 20 to 24 hrs incubation by CLSI method. In kind it is functional. Conditions: time 20-24 hrs.
Data set [29] is described as follows: Toxicity in Caenorhabditis elegans AU37 assessed as survival at 4 ug/ml measured for 4 days. Conditions: 96 h, dose 4 µg/ml, time 4 day.
Data set [30] relates to Staphylococcus aureus. In words: Antimicrobial activity against clinical isolate Staphylococcus aureus Smu9 assessed as inhibition of growth measured after 20 to 24 hrs incubation by CLSI method. In kind it is functional. Conditions: time 20-24 hrs.
Data set [31] has as its system Bacillus subtilis. Description: Antimicrobial activity against antibiotic-resistant Bacillus subtilis ATCC 6623 assessed as inhibition of visible growth measured after 20 to 24 hrs incubation by CLSI method. In kind it is functional. Conditions: time 20-24 hrs.
Data set [32] concerns Staphylococcus aureus. In words: Antimicrobial activity against antibiotic-resistant Staphylococcus aureus ATCC 33592 assessed as inhibition of visible growth measured after 20 to 24 hrs incubation by CLSI method. In kind it is functional. The conditions noted are these: time 20-24 hrs.
Data set [33] relates to Cell membrane. Description: Induction of membrane damage in Staphylococcus aureus ATCC 700699 assessed as cell surface damage at 1 to 4 times of MIC measured after 30 mins by Scanning electron microscopy. In kind it is subcellular.
The test system of data set [34] is Staphylococcus aureus. Description: Antimicrobial activity against methicilline-resistant Staphylococcus aureus ATCC 700699 persisters assessed as reduction in initial persister concentration at 2 times of MIC concentration measured for 2 to 8 hrs by Persisters time course assay. In kind it is functional, organism-based. The conditions noted are these: time 2-8 hrs.

The subject of data set [35] is Staphylococcus aureus. In words: Antimicrobial activity against Staphylococcus aureus ATCC 25923 assessed as inhibition of biofilm formation by measuring prevention of turbidity after 24 hrs incubation by Real-time monitoring method. In kind it is functional.
The test system of data set [36] is Erythrocyte. Description: Hemolytic activity in sheep red blood cells assessed as hemolysis at 16 to 32 ug/ml incubated for 30 mins relative to control. In kind it is toxicity, cell-based, Ovis aries. Conditions: 0.5 h, dose 16-32 µg/ml.
Data set [37] concerns Panel NCI-60 (60 carcinoma cell lines). In words: Cytotoxicity against human panel NCI-60 (60 carcinoma cell lines)cells assessed as cell viability at 10 uM measured after 24 hrs by resazurin assay. In kind it is functional, cell-based. Background: Alamar Blue is a resazurin reagent that responds to reducing activity.
Data set [38] concerns Staphylococcus aureus. In words: Antimicrobial activity against clinical isolate Staphylococcus aureus Smu81 assessed as inhibition of growth measured after 20 to 24 hrs incubation by CLSI method. In kind it is functional. Conditions: time 20-24 hrs.
Data set [39] concerns Staphylococcus aureus. Description: Antimicrobial activity against antibiotic-resistant Staphylococcus aureus ATCC 33591 assessed as inhibition of visible growth measured after 20 to 24 hrs incubation by CLSI method. In kind it is functional. Conditions: time 20-24 hrs.
Data set [40] concerns Staphylococcus aureus. Description: Antimicrobial activity against antibiotic-susceptible Staphylococcus aureus ATCC 25923 assessed as inhibition of biofilm formation on plastic coverslips at 0.5 times of MIC measured after 24 hrs by electron microscopy. In kind it is functional, organism-based.
For data set [41], the system named is Enterococcus faecium. In words: Antimicrobial activity against Enterococcus faecium […] assessed as inhibition of biofilm formation after 24 hrs incubation by Real-time monitoring method. In kind it is functional.

Each structure is given as a SMILES string. ≈ marks a conversion by molar mass, not a printed value. Calls of active or inactive are those of the source. The rule behind the calls is not given here.

On to `CCCCCCCCCC(=O)N[C@@H](Cc1c[nH]c2ccccc12)C(=O)N[C@H](CC(N)=O)C(=O)N[C@@H](CC(=O)O)C(=O)N[C@@H]1C(=O)NCC(=O)N[C@@H](CCCN)C(=O)N[C@@H](CC(=O)O)C(=O)N[C@H](C)C(=O)N[C@@H](CC(=O)O)C(=O)NCC(=O)N[C@H](CO)C(=O)N[C@@H]([C@H](C)CC(=O)O)C(=O)N[C@@H](CC(=O)c2ccccc2N)C(=O)O[C@@H]1C`, for which the MIC amounted to 4 µg/mL (≈ 2.47 µM) in data set [1]; 8 µg/mL (≈ 4.94 µM) in data set [2]; 4 µg/mL (≈ 2.47 µM) in data set [3]; 16 µg/mL (≈ 9.87 µM) in data set [7]; 4 µg/mL (≈ 2.47 µM) in [8]; 16 µg/mL (≈ 9.87 µM) in data set [9]. In [10], the MIC came out at 16 µg/mL (≈ 9.87 µM). Besides, the Activity in [4] worked out at 7.02%. In addition, the MBEC was 16 µg/mL in [5] and over 32 µg/mL in data set [6].
Regarding `O=C(O)c1ccc(-n2cc(CNc3cc(Br)cc(C(F)(F)F)c3)c(-c3ccc(F)c(F)c3)n2)cc1`, the MIC came to 4 µg/mL (≈ 7.24 µM) in [11]; 2 µg/mL (≈ 3.62 µM) in [12]; 2 µg/mL (≈ 3.62 µM) in [14]; 1 µg/mL (≈ 1.81 µM) in data set [1]; 1 µg/mL (≈ 1.81 µM) in data set [17]; 4 µg/mL (≈ 7.24 µM) in data set [19]. Moreover, the MIC in data set [3] turned out to be 1 µg/mL (≈ 1.81 µM); in data set [27], 1 µg/mL (≈ 1.81 µM); in [28], 2 µg/mL (≈ 3.62 µM); in data set [30], 2 µg/mL (≈ 3.62 µM); in [31], 0.5 µg/mL (≈ 0.905 µM); in data set [32], 1 µg/mL (≈ 1.81 µM). The MIC was found to be 2 µg/mL (≈ 3.62 µM) in [35], 1 µg/mL (≈ 1.81 µM) in [8], 4 µg/mL (≈ 7.24 µM) in [38] and 1 µg/mL (≈ 1.81 µM) in data set [39]. Besides, the MBBC in data set [13] and in [23] was 8 µg/mL throughout. Further, the survival at 96 h, 20 ug/ml in data set [15] is over 80%. Further, the Activity was under 10% in data set [16]; 18.5% in data set [21]; 32.8% in [24]; 96.7% in [4]; “Non-Toxic” in [29]; “Non-Toxic” in data set [36]. Further, in data set [18], the IC50 (as a rule, the concentration at which inhibition is half-maximal) worked out at 27 µg/mL (≈ 48.9 µM). Moreover, the outcome in data set [20], in data set [22], in data set [34] and in data set [37] was inactive. The outcome in [25], in data set [33] and in data set [40] was Active. Also, the “log(activity)” value in data set [26] is 6. Besides, the MBIC in data set [41] is 4 µg/mL.

Values taken from ChEMBL document CHEMBL5365500, “Development and Antibacterial Properties of 4-[4-(Anilinomethyl)-3-phenylpyrazol-1-yl]benzoic Acid Derivatives as Fatty Acid Biosynthesis Inhibitors” (J Med Chem, 2023).
